The source of these data is patent US20040077689A1, “Abc expression promoters” (priority 2001, published 2004).

Type in all cases: cell-based
One assay relates to ABCA1 mRNA. Kind of assay: Expression modulatory activity for ABCA1 mRNA in human monocyte-derived cells. Particulars: THP-1 cells, test compound 1 μM, 24 hours; Not added = 100.0; Mean ± SEM (n = 3). As for the experimental part: (§1) To a PMA (phorbol 12-myristate 13-acetate, 400 ng/mL)-FBS (fetal bovine serum, 10%)-containing RPMI medium was suspended human monocyte -derived THP-1 cells (ATCC) (7×10^5 cell/mL), and the obtained suspension was dispensed into a 24-well plate (0.5 mL/well) and cultured for 3 days. After removing the medium, a FBS (fetal bovine serum, 10%)—containing RPMI1640 medium into which a test compound (1 μM) had been added was added to the 24-well plate and the plate was cultured for 24 hours. Whole RNA was extracted from the cultured cells using RNeasy Mini Kit (QIAGEN), and then the expression amounts of LXRα mRNA, ABCA1 mRNA, ABCG1 mRNA and Human acidic ribosomal protein (huPO; 36B4) mRNA as an internal standard were measured by real-time quantitative RT-PCR according to TaqMan PCR method using a TaqMan EZ RT-PCR kit (Applied Biosystems). […]
(§2) The expression amount of Human acidic ribosomal protein (huPO; 36B4) mRNA was measured using Pre-Developed TaqMan Assay Reagents Endogenous Control (Human Acidic ribosomal protein (huPO)) (Applied Biosystems), and VIC was used as a reporter dye and TAMRA was used as a quencher dye. […]

The test system of assay [1] is LXRα mRNA. In words: Expression modulatory activity for LXRα mRNA in human monocyte-derived cells. Particulars: THP-1 cells, test compound 1 μM, 24 hours; Not added = 100.0; Mean ± SEM (n = 3). As for the experimental part: as §1, §2
Assay [2] relates to LXRα mRNA. In words: Expression modulatory activity for LXRα mRNA in mouse macrophages. Particulars: C57BL6/J mouse peritoneal macrophages, test compound 1 μM, 24 hours; Not added = 100.0; Mean ± SEM (n = 3). As for the experimental part:
(§3) A C57BL6/J mouse (male, 10 weeks old) was intraperitoneally administered with 1 mL of a 5% thioglycolic acid medium (Wako Pure Chemical Industries, Ltd.). After 4 days, intraperitoneal cells were collected with phosphate-buffered saline (PBS), and macrophages were separated in a 3% BSA-containing DMEM medium as cells adhesive to a plate. After incubation of the macrophages overnight in a DMEM medium containing 10% human lipoprotein-removed serum, the medium was replaced with a DMEM medium containing a test compound (1 μM) and 10% fetal bovine serum and cultured for 24 hours.
(§4) After the medium was removed, whole RNA was extracted from the obtained macrophage using RNeasy Mini Kit (QIAGEN) and then the expression amounts of the LXRαmRNA, ABCG1mRNA and mouse acidic ribosomal protein (36B4) mRNA as an internal standard were measured by real-time quantitative RT-PCR according to TaqMan PCR method using a TaqMan EZ RT-PCR kit (Applied Biosystems). […]
(§5) Real-time quantitative PCR was carried out according to the similar manner to Experimental Example 1.
(§6) Based on the ratio of the expression amount of the LXRαmRNA and ABCG1mRNA relative to the internal standard (expression amount of mouse acidic ribosomal protein mRNA), the expression modulatory activities for the LXRα mRNA and ABCG1 mRNA of the test compound were evaluated.

The subject of assay [3] is ABCG1 mRNA. Kind of assay: Expression modulatory activity for ABCG1 mRNA in mouse macrophages. Particulars: C57BL6/J mouse peritoneal macrophages, test compound 1 μM, 24 hours; Not added = 100.0; Mean ± SEM (n = 3). As for the experimental part: as §3, §4, §5, §6
Another assay deals with ACAT-1 mRNA. In words: Expression modulatory activity for ACAT-1 mRNA in human monocyte-derived cells. Particulars: THP-1 cells, test compound 1 μM, 2 days + 1 day; Not added = 100.0; Mean ± SEM (n = 3). The protocol: (§7) In a RPMI medium containing a test compound (1 μM), PMA (phorbol 12-myristate 13-acetate, 400 ng/mL)-FBS (fetal bovine serum, 10%) was suspended human monocyte-derived THP-1 cells (purchased from Dainippon Pharmaceutical Co., Ltd.) (7.2×10^5 cell/mL). The obtained suspension was dispensed into a 24 well plate (0.5 mL/well) and cultured for 2 days (3.6×10^5 cells). After the medium was removed, a RPMI medium containing the test compound (1 μM), PMA(400 ng/mL)-FBS(10%) was added to the plate and it was cultured further for 1 day.
(§8) After the medium was removed, whole RNA was extracted from the obtained cells using RN easy Mini Kit (QIAGEN), and the expression amounts of ACAT-1 mRNA, CEH mRNA and human acidic ribosomal protein (huPO; 36B4) mRNA as an internal standard were measured by real-time quantitative RT-PCR according to TaqMan PCR method using a TaqMan EZ RT-PCR kit (Applied Biosystems).
In the above mentioned method, for the measurement of the expression amount of the ACAT-1mRNA, oligo DNAs represented by
5′-[…]-3′ (SEQ ID NO: 19),
5′-[…]-3′ (SEQ ID NO: 20) and […]
(§9) The expression amount of human acidic ribosomal protein (huPO; 36B4) mRNA was measured according to the method similar to Experimental Example 1. Real-time quantitative RT-PCR was carried out similarly to Experimental Example 1. […]

The subject of assay [4] is human monocyte-derived THP-1 cells. In words: Foaming-suppressant activity in human monocyte-derived cells (intracellular lipid content). Particulars: for Intracellular lipid content FC (free cholesterol) / Intracellular lipid content TC (total cholesterol) / Intracellular lipid content CE (cholesteryl ester): test compound 1 μM, rabbit β-VLDL loading 2 days; for Intracellular lipid content FC (free cholesterol): Not added = 80.8 ± 1.2, Mean ± SEM (n = 3); for Intracellular lipid content TC (total cholesterol): Not added = 114.8 ± 1.8, Mean ± SEM (n = 3); for Intracellular lipid content CE (cholesteryl ester): calculated as TC minus FC, Not added = 34.0 ± 2.3, Mean ± SEM (n = 3). As for the experimental part: In a RPMI1640 medium containing a test compound (1 μM), PMA (phorbol 12-myristate 13-acetate, 400 ng/ml) and 10% fetal bovine serum was suspended human monocyte-derived THP-1 cells (purchased from Dainippon Pharmaceutical Co., Ltd.). The obtained suspension was dispensed into a 12-well plate (7.2×10^5 cells) and was cultured for 3 days. The obtained cell was further cultured in a RPMI1640 medium containing the test compound and 0.2 mM oleic acid-0.2% bovine serum albumin complex and rabbit β-VLDL (200 μg cholesterol/mL) for 2 days, and then the total lipids in the cells were extracted with a mixed solution of n-hexane/isopropanol (3:2). The amounts of the total cholesterol (TC) and free cholesterol (FC) in the extract were measured with a enzyme method [using Cholesterol E-Test Wako (trade name, Wako Pure Chemical Industries, Ltd.)], and the amount of cholesteryl ester (CE) was calculated by the difference between the two cholesterol amounts. The intracellular lipid content was then evaluated by dividing the amounts of these lipids by the amount of cell protein (measured using BCA assay kit (Pierce)). In the Table, TC represents total cholesterol, FC represents free cholesterol and CE represents cholesteryl ester.

In the next assay the test system is CEH mRNA. Kind of assay: Expression modulatory activity for CEH mRNA in human monocyte-derived cells. Particulars: THP-1 cells, test compound 1 μM, 2 days + 1 day; Not added = 100.0; Mean ± SEM (n = 3). As for the experimental part:
as §7, §8
Furthermore, for the measurement of the expression amount of the CEH mRNA, oligo DNAs represented by
5′-AGCCCTTGGCTGAGCAAA-3′ (SEQ ID NO: 22),
5′-GTCGCAGGCAGTGAACCAT-3′ (SEQ ID NO: 23) and
5′-[…]-3′ (SEQ ID NO: 24) […]
as §9

The subject of assay [5] is ABCG1 mRNA. In words: Expression modulatory activity for ABCG1 mRNA in human monocyte-derived cells. Particulars: THP-1 cells, test compound 1 μM, 24 hours; Not added = 100.0; Mean ± SEM (n = 3). The protocol: as §1, §2

Counter-ions that a name gives are not always drawn.

Consider `Cc1oc(-c2ccccc2)nc1COc1ccc(CO/N=C(\CCC(=O)O)c2ccccc2)cc1` [Compound (7), E-4-[4-(5-methyl-2-phenyl-4-oxazolylmethoxy)benzyloxyimino]-4-phenylbutyric acid], for which the “Expression amount of mRNA (Relative ratio % to internal standard) ABCA1” value with ABCA1 mRNA is 113.5 ± 5.5%. Also, the “Expression amount of mRNA (Relative ratio % to internal standard) LXRα” value in the assay on LXRα mRNA [1] is on record as 160.1 ± 9.0%. Further, the “Expression amount of mRNA (Relative ratio % to internal standard) LXRα” value with LXRα mRNA [2] is on record as 173.0 ± 9.9%. For the same compound, the “Expression amount of mRNA (Relative ratio % to internal standard) ABCG1” value in the assay with ABCG1 mRNA [3] is on record as 159.1 ± 6.1%. Further, in the assay on ACAT-1 mRNA, the “Expression amount of mRNA (Relative ratio % to internal standard) ACAT-1” value is given as 66.1 ± 1.5%. Moreover, the foaming-suppressant activity result in assay [4] (conclusion based on the decrease in the amount of cholesteryl ester, 1 μM) is recorded as “have foaming-suppressant activity”. Also, in assay [4], the “Intracellular lipid content FC (free cholesterol)” value is 72.0 ± 1.3 μg/mg cell protein, the “Intracellular lipid content TC (total cholesterol)” value was 95.8 ± 1.4 μg/mg cell protein and the “Intracellular lipid content CE (cholesteryl ester)” value is listed as 23.7 ± 1.9 μg/mg cell protein. Moreover, in the assay on CEH mRNA, the “Expression amount of mRNA (Relative ratio % to internal standard) CEH” value stood at 159.4 ± 1.9%. The “Expression amount of mRNA (Relative ratio % to internal standard) ABCG1” value in the assay on ABCG1 mRNA [5] is 265.5 ± 22.0%.
In the case of `CCc1ccc(CCOc2ccc(CC3SC(=O)NC3=O)cc2)nc1` (stereo not drawn) [Pioglitazone hydrochloride, reference compound], the “Expression amount of mRNA (Relative ratio % to internal standard) ABCA1” value with ABCA1 mRNA stood at 108.2 ± 3.5%. Moreover, the “Expression amount of mRNA (Relative ratio % to internal standard) LXRα” value in the assay with LXRα mRNA [1] was determined as 165.7 ± 4.6%. In the assay on LXRα mRNA [2], the “Expression amount of mRNA (Relative ratio % to internal standard) LXRα” value was determined as 145.3 ± 17.9%. Besides, the “Expression amount of mRNA (Relative ratio % to internal standard) ABCG1” value in the assay on ABCG1 mRNA [3] is given as 195.2 ± 23.1%. Also, in the assay on ACAT-1 mRNA, the “Expression amount of mRNA (Relative ratio % to internal standard) ACAT-1” value is recorded as 65.8 ± 1.9%. Besides, in assay [4], the “Intracellular lipid content FC (free cholesterol)” value was determined as 72.7 ± 0.4 μg/mg cell protein, the “Intracellular lipid content TC (total cholesterol)” value is 100.3 ± 0.3 μg/mg cell protein and the “Intracellular lipid content CE (cholesteryl ester)” value is given as 27.6 ± 0.5 μg/mg cell protein. For the same compound, the “Expression amount of mRNA (Relative ratio % to internal standard) CEH” value with CEH mRNA is 148.6 ± 9.2%. For the same compound, the “Expression amount of mRNA (Relative ratio % to internal standard) ABCG1” value in the assay with ABCG1 mRNA [5] turned out to be 252.0 ± 9.2%.
